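96-well plates; 48 h exposure; 5 concentrations. Endpoints by linear interpolation between flanking doses. Not reached: highest tested concentration assigned. Abbreviation: GI50, concentration required for 50% inhibition of growth.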 Active and inactive are the calls of the source. Rule as the data show it: active = GI50 up to about 1.1 µM and inactive = higher.

Test systems include RPMI-8226; SNB-19; 786-0; SF-539; MDA-N; HOP-62; NCI-H226; NCI-H23; Hs-578T; OVCAR-4; OVCAR-8; K562; CCRF-CEM; HCT-116; NCI/ADR-RES; NCI-H522; BT-549; SF-268; SK-MEL-5; IGROV-1.
Holding throughout (experiment): NCI tumour cell line growth inhibition, 48 h

As to `Nc1ccc(C(=O)CC(N)C(=O)O)cc1O` (stereo not given), the GI50 in the test with RPMI-8226, with SNB-19, with 786-0, in the test on SF-539, with MDA-N and in the test on HOP-62 was > 100 µM (inactive) each time. Further, the GI50 in the test on NCI-H226, with NCI-H23, in the test with Hs-578T, with OVCAR-4, with OVCAR-8 and with K562 was > 100 µM (inactive) in each case. In addition, the GI50 with CCRF-CEM, in the test on HCT-116, in the test with NCI/ADR-RES, with NCI-H522, in the test on BT-549 and with SF-268 was > 100 µM (inactive) in each case. The GI50 with SK-MEL-5 and in the test with IGROV-1 was > 100 µM (inactive) each time.

In the case of `COc1ccc2c(c1)CN([C@@H](C)[C@H]1CC[C@H]3[C@@H]4CC[C@H]5C[C@@H](O)CC[C@]5(C)[C@H]4CC[C@]13C)CO2`, the GI50 in the test with RPMI-8226 is 0.541 µM (active); with SNB-19 it was 1.96 µM (inactive); in the test with 786-0, 1.3 µM (inactive); in the test with SF-539, 1.59 µM (inactive); with MDA-N it was 1.7 µM (inactive); with HOP-62, 2 µM (inactive). The GI50 with NCI-H226 is 7.36 µM (inactive); in the test on NCI-H23 it was 1.89 µM (inactive); with Hs-578T, 1.61 µM (inactive); with OVCAR-4, 4.05 µM (inactive); with OVCAR-8 it was 2.71 µM (inactive); in the test on K562, 0.787 µM (active). For the same compound, the GI50 in the test with CCRF-CEM is 1.85 µM (inactive); in the test on HCT-116, 2.17 µM (inactive); with NCI/ADR-RES, 3.37 µM (inactive); in the test with NCI-H522, 1.95 µM (inactive); with BT-549 it was 3.38 µM (inactive); with SF-268, 2.26 µM (inactive). In addition, the GI50 with SK-MEL-5 is 1.69 µM (inactive); in the test with IGROV-1, 3.95 µM (inactive).

Turning to `CCCCCCCCCCCCC/C=C(/COCC[N+](C)(C)C)OC(C)=O.CCCCCCCCCCCCCC/C(=C/OCC[N+](C)(C)C)OC(C)=O`, the GI50 was 1.3 µM (inactive) with RPMI-8226; 1.47 µM (inactive) in the test with SNB-19; 1.08 µM (active) in the test on 786-0; 1.85 µM (inactive) in the test on SF-539; 3.07 µM (inactive) with MDA-N; 1.65 µM (inactive) in the test on HOP-62. Further, the GI50 was 1.57 µM (inactive) with NCI-H226; 1.9 µM (inactive) in the test with NCI-H23; 1.91 µM (inactive) in the test with Hs-578T; 1.95 µM (inactive) with OVCAR-4; 0.944 µM (active) with OVCAR-8; 1.71 µM (inactive) in the test with K562. The GI50 in the test on CCRF-CEM was 1.76 µM (inactive); in the test on HCT-116, 0.643 µM (active); in the test with NCI/ADR-RES it was 17.6 µM (inactive); in the test on NCI-H522 it was 1.87 µM (inactive); in the test with BT-549, 1.45 µM (inactive); in the test with SF-268, 1.87 µM (inactive). Besides, the results for the GI50 with SK-MEL-5 and in the test on IGROV-1 were 2.54 µM (inactive) and 1.69 µM (inactive), respectively.

In the case of `OC(CC(c1ccccc1)c1ccc(Cl)cc1)c1ccc(Cl)cc1` (stereo not given), the GI50 with RPMI-8226 was 26.9 µM (inactive); in the test on SNB-19, 45.2 µM (inactive); in the test with 786-0, 34.1 µM (inactive); in the test with SF-539, 21.4 µM (inactive); with MDA-N it was 29 µM (inactive); with HOP-62, 36.4 µM (inactive). The GI50 with NCI-H226 was 31.6 µM (inactive); with NCI-H23 it was 29.7 µM (inactive); in the test with Hs-578T, 48.1 µM (inactive); with OVCAR-4, 31.3 µM (inactive); in the test on OVCAR-8, 36.8 µM (inactive); in the test with K562, 32.4 µM (inactive). Further, the GI50 in the test on CCRF-CEM was 36.8 µM (inactive); in the test on HCT-116 it was 31.3 µM (inactive); with NCI/ADR-RES, 33.5 µM (inactive); with NCI-H522, 25.1 µM (inactive); in the test on BT-549, 56.6 µM (inactive); with SF-268, 37.1 µM (inactive). Moreover, the GI50 is 32 µM (inactive) in the test with SK-MEL-5 and 35.8 µM (inactive) in the test on IGROV-1.

The values above are taken from ChEMBL document CHEMBL1201862, “PubChem BioAssay data set” (2004).
